Measurements from patent US7790921B2 (Biolink Life Sciences, Inc., priority 2007, dated 2010).
Entries after “also recorded” stand apart in the source; their conditions may differ. Like-named read-outs stand apart in the source and are kept apart here.

Assays:
Solubility in methanol = settings: product of Examples 2 and 3
[1] = Solubility in simulated gastric fluid USP; format: physicochemical
[2] = Solubility of lithium valproate in water / aqueous solutions
[3] = Hygroscopicity and storage stability of the solid; format: physicochemical
[4] = Solubility in simulated intestinal fluid USP; format: physicochemical
[5] = literature; cited from earlier work
deacetylase = settings: dose between 20 and 40 mg/kg, patients with cervical cancer; cited from earlier work
HIV-infected individuals = settings: 250 mg twice daily, 10 weeks; cited from earlier work
[6] = system: patients with major depressive illness, bipolar disorder, or schizoaffective disorder; settings: cited from earlier work
[7] = mean duration of at least 1 year of administration

## CCCC(CCC)C(=O)[O-].[Li+] [lithium valproate]
Solubility in methanol
  solubility in methanol: very soluble
[1]
  solubility in simulated gastric fluid USP: soluble
[2]; portions added to 1 mL water until undissolved
  solubility of lithium valproate in water: about 250 mg of lithium valproate per mL of water
[2]; product of Examples 2 and 3
  solubility in water: very soluble
[2]; water or aqueous solutions
  pH of aqueous solutions: near neutral pH
[3]
  hygroscopicity: not hygroscopic or deliquescent; also recorded: non-hygroscopic
  stability during storage: stable during storage
[4]
  solubility in simulated intestinal fluid USP: soluble

## CCCC(CCC)C(=O)[O-].[Na+] [Sodium valproate]
[5]
  hygroscopicity: hygroscopic

## 2-propylpentanoic acid magnesium salt [magnesium valproate]
deacetylase
  effect on deacetylase activity in tumor tissues: inhibits deacetylase activity

## CCCC(CCC)C(=O)O [divalproex sodium]
[5]
  hygroscopicity: not hygroscopic

## CCCC(CCC)C(=O)O [Valproic acid, 2-propylpentanoic acid]
[5]
  solubility in water: very slightly soluble
HIV-infected individuals
  safety and tolerability: safe and well tolerated
[6]; bipolar and schizoaffective patients, average of 11 to 14 months of treatment
  mean change in GAS ratings: 35.0
[6]; [7]
  patients with improved mean GAS scores, bipolar disorder: 12 of 12
  patients with improved mean GAS scores, depressed patients: 7 of 9
  patients with improved mean GAS scores, schizoaffective states: 11 of 14
